# Source: the supplement of paper PMC10307832
# How the values were obtained:
# Assay in all cases: relative viability (nuclei count vs DMSO), 5 days (fraction); higher = more cells survive
# [1] = test system: NCI-H838
# Summary of the method: (§1)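 Values are medians from duplicate plates. Each reflects relative viability, defined as the nuclei count of treated wells over that of vehicle wells. Lung cancer cell lines in 1536-well plates were pin-tool dosed one day after seeding with one drug alone or with a fixed anchor-drug dose plus five library-drug doses (not always all listed) in √10 steps, then fixed, stained and imaged at 4× after 5 days.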
# [2] = test system: NCI-H1666
# Summary of the method: as §1
# [3] = test system: HCC-44
# Summary of the method: as §1
# [4] = test system: COR-L23
# Summary of the method: as §1
# [5] = test system: NCI-H1792
# Summary of the method: as §1
# [6] = test system: NCI-H1437
# Summary of the method: as §1
# [7] = test system: NCI-H650
# Summary of the method: as §1
# [8] = test system: HCC-15
# Summary of the method: as §1
# [9] = test system: BEN
# Summary of the method: as §1
# [10] = test system: A-427
# Summary of the method: as §1
# [11] = test system: EKVX
# Summary of the method: as §1
# [12] = test system: NCI-H23
# Summary of the method: as §1
# [13] = test system: SK-MES-1
# Summary of the method: as §1
# [14] = test system: NCI-H441
# Summary of the method: as §1
# [15] = test system: HARA
# Summary of the method: as §1
# [16] = test system: HCC-827
# Summary of the method: as §1
# [17] = test system: NCI-H596
# Summary of the method: as §1
# [18] = test system: NCI-H358
# Summary of the method: as §1
# [19] = test system: NCI-H1650
# Summary of the method: as §1
# [20] = test system: NCI-H1975
# Summary of the method: as §1
# [21] = test system: 201T
# Summary of the method: as §1
smiles,measurement,setting,value
O=c1cc(-c2cccc3c2Sc2ccccc2S3)oc(N2CCOCC2)c1 + CS(=O)(=O)N1CCN(Cc2cc3nc(-c4cccc5[nH]ncc45)nc(N4CCOCC4)c3s2)CC1 [Pictilisib] (partner 1 µM),relative viability,[1]; first compound 0.08 µM,0.415
same,relative viability,[1]; first compound 0.253 µM,0.643
same,relative viability,[1]; first compound 0.8 µM,0.372
same,relative viability,[1]; first compound 2.53 µM,0.426
same,relative viability,[1]; first compound 8 µM,0.408
same,relative viability,[2]; first compound 0.08 µM,0.404
same,relative viability,[2]; first compound 0.253 µM,0.416
same,relative viability,[2]; first compound 0.8 µM,0.323
same,relative viability,[2]; first compound 2.53 µM,0.411
same,relative viability,[2]; first compound 8 µM,0.396
same,relative viability,[3]; first compound 0.08 µM,0.457
same,relative viability,[3]; first compound 0.253 µM,0.655
same,relative viability,[3]; first compound 0.8 µM,0.536
same,relative viability,[3]; first compound 2.53 µM,0.468
same,relative viability,[3]; first compound 8 µM,0.577
same,relative viability,[4]; first compound 0.08 µM,0.92
same,relative viability,[4]; first compound 0.253 µM,1.36
same,relative viability,[4]; first compound 0.8 µM,0.934
same,relative viability,[4]; first compound 2.53 µM,0.705
same,relative viability,[4]; first compound 8 µM,1.06
same,relative viability,[5]; first compound 0.253 µM,0.257
same,relative viability,[5]; first compound 0.8 µM,0.223
same,relative viability,[5]; first compound 2.53 µM,0.277
same,relative viability,[5]; first compound 8 µM,0.238
same,relative viability,[6]; first compound 0.08 µM,0.464
same,relative viability,[6]; first compound 0.253 µM,0.534
same,relative viability,[6]; first compound 0.8 µM,0.395
same,relative viability,[6]; first compound 2.53 µM,0.373
same,relative viability,[6]; first compound 8 µM,0.37
same,relative viability,[7]; first compound 0.08 µM,0.807
same,relative viability,[7]; first compound 0.253 µM,0.873
same,relative viability,[7]; first compound 0.8 µM,0.741
same,relative viability,[7]; first compound 2.53 µM,0.806
same,relative viability,[7]; first compound 8 µM,0.767
same,relative viability,[8]; first compound 0.08 µM,0.732
same,relative viability,[8]; first compound 0.253 µM,0.858
same,relative viability,[8]; first compound 0.8 µM,0.797
same,relative viability,[8]; first compound 2.53 µM,0.674
same,relative viability,[8]; first compound 8 µM,0.793
same,relative viability,[9]; first compound 0.08 µM,0.533
same,relative viability,[9]; first compound 0.253 µM,0.671
same,relative viability,[9]; first compound 0.8 µM,0.531
same,relative viability,[9]; first compound 2.53 µM,0.591
same,relative viability,[9]; first compound 8 µM,0.686
same,relative viability,[10]; first compound 0.08 µM,0.818
same,relative viability,[10]; first compound 0.253 µM,0.678
same,relative viability,[10]; first compound 0.8 µM,0.634
same,relative viability,[10]; first compound 2.53 µM,0.623
same,relative viability,[10]; first compound 8 µM,0.973
same,relative viability,[11]; first compound 0.08 µM,0.418
same,relative viability,[11]; first compound 0.253 µM,0.521
same,relative viability,[11]; first compound 0.8 µM,0.286
same,relative viability,[11]; first compound 2.53 µM,0.439
same,relative viability,[11]; first compound 8 µM,0.47
same,relative viability,[12]; first compound 0.08 µM,0.559
same,relative viability,[12]; first compound 0.253 µM,0.523
same,relative viability,[12]; first compound 0.8 µM,0.47
same,relative viability,[12]; first compound 2.53 µM,0.4
same,relative viability,[12]; first compound 8 µM,0.457
same,relative viability,[13]; first compound 0.08 µM,0.373
same,relative viability,[13]; first compound 0.253 µM,0.396
same,relative viability,[13]; first compound 0.8 µM,0.338
same,relative viability,[13]; first compound 2.53 µM,0.407
same,relative viability,[13]; first compound 8 µM,0.474
same,relative viability,[14]; first compound 0.08 µM,0.533
same,relative viability,[14]; first compound 0.253 µM,0.472
same,relative viability,[14]; first compound 0.8 µM,0.513
same,relative viability,[14]; first compound 2.53 µM,0.426
same,relative viability,[14]; first compound 8 µM,0.509
same,relative viability,[15]; first compound 0.08 µM,0.368
same,relative viability,[15]; first compound 0.253 µM,0.378
same,relative viability,[15]; first compound 0.8 µM,0.419
same,relative viability,[15]; first compound 2.53 µM,0.384
same,relative viability,[15]; first compound 8 µM,0.627
same,relative viability,[16]; first compound 0.08 µM,0.945
same,relative viability,[16]; first compound 0.253 µM,1.13
same,relative viability,[16]; first compound 0.8 µM,1.12
same,relative viability,[16]; first compound 2.53 µM,0.743
same,relative viability,[16]; first compound 8 µM,1.1
same,relative viability,[17]; first compound 0.08 µM,0.34
same,relative viability,[17]; first compound 0.253 µM,0.419
same,relative viability,[17]; first compound 0.8 µM,0.357
same,relative viability,[17]; first compound 2.53 µM,0.371
same,relative viability,[17]; first compound 8 µM,0.403
same,relative viability,[18]; first compound 0.08 µM,0.311
same,relative viability,[18]; first compound 0.253 µM,0.328
same,relative viability,[18]; first compound 0.8 µM,0.351
same,relative viability,[18]; first compound 2.53 µM,0.269
same,relative viability,[18]; first compound 8 µM,0.33
same,relative viability,[19]; first compound 0.08 µM,0.509
same,relative viability,[19]; first compound 0.253 µM,0.53
same,relative viability,[19]; first compound 0.8 µM,0.507
same,relative viability,[19]; first compound 2.53 µM,0.522
same,relative viability,[19]; first compound 8 µM,0.582
same,relative viability,[20]; first compound 0.08 µM,0.276
same,relative viability,[20]; first compound 0.253 µM,0.311
same,relative viability,[20]; first compound 0.8 µM,0.236
same,relative viability,[20]; first compound 2.53 µM,0.272
same,relative viability,[20]; first compound 8 µM,0.269
same,relative viability,[21]; first compound 0.08 µM,0.652
same,relative viability,[21]; first compound 0.253 µM,0.718
same,relative viability,[21]; first compound 0.8 µM,0.51
same,relative viability,[21]; first compound 2.53 µM,0.616
same,relative viability,[21]; first compound 8 µM,0.742
